Assay results reported in patent publication US12318455B2, “Anti-HER2 antibody-drug conjugate and application thereof” (HANGZHOU ADCORIS BIOPHARMA CO., LTD., priority 2016, dated 2025).

Assays:
Format in all cases: cell-based
[1] = tested on: NCI-N87; experiment: Tumor cell inhibition experiment (CCK-8), NCI-N87; conditions: NCI-N87, HER2 3+, 3 days, read-out: IC50 values (nM) of anti-HER2 antibody-drug conjugates to HER2-expressing tumor cells
Procedure: (§1) This example examined the inhibitory activity of the antibody-drug conjugates of the present invention on HER2-positive cells. The tumor cell lines in this example were all purchased from ATCC, USA.
(§2) The experimental steps are as follows:
(§3) The cells were digested, collected by centrifugation, counted, and the cell liquid was diluted to 0.4-2.0×10^5 cells/ml, and 100 μl of said cell suspension was added to each well of a 96-well plate. The cells were cultured overnight in a 37° C. cell culture incubator, and ADC drugs with corresponding concentration was added the next day. The initial concentration of the drug was 1-15 μg/ml, and was diluted in 3-fold equal-gradient with a total of 9 concentration gradients. Finally, a set of zero-concentration cell were set as controls. After addition of drug, the cells were cultured for 3 days, and the drug-containing medium was sucked. 100 μl of 10% CCK-8 solution was added to each well, and incubated at 37° C. for 1-2 h, and then absorbance intensity of each well was detected at 490 nm with a microplate reader. The data was imported into a mapping software, the curve was fitted, and IC50 values were calculated.

[2] = tested on: OE-19; experiment: Tumor cell inhibition experiment (CCK-8), OE-19; conditions: OE-19, HER2 3+, 3 days, read-out: IC50 values (nM) of anti-HER2 antibody-drug conjugates to HER2-expressing tumor cells
Procedure: as §1, §2, §3

[3] = tested on: BT474; experiment: Tumor cell inhibition experiment (CCK-8), BT474; conditions: BT474, HER2 3+, 3 days, read-out: IC50 values (nM) of anti-HER2 antibody-drug conjugates to HER2-expressing tumor cells
Procedure: as §1, §2, §3

[4] = tested on: SKBR-3; experiment: Tumor cell inhibition experiment (CCK-8), SKBR-3; conditions: SKBR-3, HER2 3+, 3 days, read-out: IC50 values (nM) of anti-HER2 antibody-drug conjugates to HER2-expressing tumor cells
Procedure: as §1, §2, §3

[5] = tested on: HCC1954; experiment: Tumor cell inhibition experiment (CCK-8), HCC1954; conditions: HCC1954, HER2 3+, 3 days, read-out: IC50 values (nM) of anti-HER2 antibody-drug conjugates to HER2-expressing tumor cells
Procedure: as §1, §2, §3

[6] = tested on: MDA453; experiment: Tumor cell inhibition experiment (CCK-8), MDA453; conditions: MDA453, HER2 2+, 3 days, read-out: IC50 values (nM) of anti-HER2 antibody-drug conjugates to HER2-expressing tumor cells
Procedure: as §1, §2, §3

Substance: T-DM1
- IC50 [1]: 0.548 nM
- IC50 [2]: 0.099 nM
- IC50 [3]: 0.622 nM
- IC50 [4]: 0.114 nM
- IC50 [5]: 0.159 nM
- IC50 [6]: 0.259 nM
